Laboratory results from PMC9611758, “Bioactive Platinum(IV) Complexes Incorporating Halogenated Phenylacetates” (Molecules, 2022).
Where “and” joins values, the source holds several entries; their conditions need not be identical. Equal entries are not always repeated. Entries after “also recorded” stand apart in the source; their conditions may differ. Where two headings read alike, the source gives them in different places.

Assays:
[1] = system: A2780 ovarian; assay: MTT growth inhibition assay, A2780; type: cell-based, human; conditions: 72 h
[2] = system: HT29 colon; assay: MTT growth inhibition assay, HT29; type: cell-based, human; conditions: MTT assay, 72 h
[3] = system: Du145 prostate; assay: MTT growth inhibition assay, Du145; type: cell-based, human; conditions: for GI50: MTT assay, 72 h
[4] = system: panel of cell lines; assay: MTT growth inhibition assay, whole panel of cell lines; type: cell-based, human; conditions: average over the cell lines tested, MTT assay, 72 h
[5] = system: MIA pancreas; assay: MTT growth inhibition assay, MIA; type: cell-based, human; conditions: 72 h
[6] = system: A431 skin; assay: MTT growth inhibition assay, A431; type: cell-based, human; conditions: 72 h
[7] = system: H460 lung; assay: MTT growth inhibition assay, H460; type: cell-based, human; conditions: 72 h
[8] = system: BE2-C neuroblastoma; assay: MTT growth inhibition assay, BE2-C; type: cell-based, human; conditions: 72 h
[9] = system: SJ-G2 glioblastoma; assay: MTT growth inhibition assay, SJ-G2; type: cell-based, human; conditions: 72 h
[10] = Reduction experiments with AsA by 1H-NMR and 1D-195Pt-NMR; type: physicochemical; conditions: D2O, 37 °C; for T50% (approximate time at which 50% reduction occurs): 10 mM PBS (~7.4 pH), 1H-NMR; for extent of reduction 1 h after the final 1H-NMR experiment (1D-195Pt-NMR): PBS, regions −2800 and 400 ppm
Text: Platinum(IV) complexes are reduced to their platinum(II) precursors by intracellular biological reducing agents such as AsA or GSH in tumour cells. However, the precise mechanism by which reduction occurs is not fully understood. In this paper, reduction reaction experiments were undertaken on the synthesised platinum(IV) complexes, 1–8, with the aid of ^1H-NMR and 1D-^195Pt-NMR spectroscopy. The method used for the reduction reaction experiments was adapted from the literature without modifications. A total of 10 mM PBS (~7.4 pH) was selected as media, and AsA was used as the biological reducing agent to investigate the reduction property of 1–8. Prior to the reduction reaction experiments, a control was prepared where each metal complex was dissolved with PBS in D2O. 1D-^195Pt-NMR was measured within the regions of −2800 and 400 ppm (30 min per region), at 37 °C. This was undertaken to confirm that the PBS would not interfere with the reduction process of the metal complexes. […] The approximate time points for the studied complexes at which an estimated 50% reduction had occurred, in the presence of AsA, as represented by T50%, are summarised in Table 6.
The reduction properties of 1–8 were monitored using ^1H-NMR and 1D-^195Pt-NMR spectroscopy on a 400 MHz Bruker (Melbourne, VIC, Australia) Avance Spectrometer. A sequence of ^1H-NMR experiments was carried out for 1 h at 37 °C, followed by 1D-^195Pt-NMR within the regions of −2800 and 400 ppm. An amount of 10 mM PBS (~7.4 pH) was transferred to a vial and reduced to dryness through rotary evaporation. AsA (~1 mg) was combined with the metal complex (~5 mg) and transferred to the vial containing the dried PBS. A total of 600 µL of D2O was then added to the vial to dissolve the complex, AsA, and the PBS together.

[11] = system: MCF-7 breast; assay: MTT growth inhibition assay, MCF-7; type: cell-based, human; conditions: MTT assay, 72 h
[12] = system: U87 glioblastoma; assay: MTT growth inhibition assay, U87; type: cell-based, human; conditions: 72 h
[13] = system: ADDP-resistant ovarian variant; assay: MTT growth inhibition assay, ADDP; type: cell-based, human; conditions: for GI50: MTT assay, 72 h
[14] = system: HT29 colon cells; assay: ROS detection assay (DCFH-DA); type: cell-based, human; conditions: HT29 colon cells, treated at GI50 concentration (TBHP positive control 20 μM)
Text: Although ROS is required for cancer cell function and progression, it can induce programmed cell death or apoptosis. […] In this study, we report the ROS activity of the studied platinum(IV) complexes, 1–8, together with the individual axial ligands (4-CPA, 4-FPA, 4-BPA, and 4-IPA) in the human cancer cell line, HT29 colon (Figure 19, Table 8, and Figure S95). The ROS potential of their platinum(II) and platinum(IV) precursors in the same cell line is also presented for comparison purposes (Table 8). […] HT29 colon cells were stained by DCFH-DA and then treated with the complexes at each specific GI50 concentration. Upon ROS production, the DCFH-DA produced dichlorodihydrofluorescein, a fluorescent product. The measured fluorescence was, therefore, proportional to the produced ROS.
To investigate the presence of ROS in treated cells, a DCFDA/H2DCFDA-cellular ROS Assay Kit (Abcam, Cambridge, MA, USA) was used, as previously described. A total of 25,000 cells/mL of HT29 cells in DMEM were seeded in 96-well plates. Cells were washed with 1X kit buffer, and then stained with 25 μM 2′,7′-dichlorofluorescein diacetate (DCFH-DA) and incubated for 45 min. DCFH-DA was then removed, and cells were then re-washed with 1X kit buffer, after which phenol red free media was added. Cells were then treated with a GI50 drug concentration for each complex. The plates were directly scanned to measure fluorescence (relative fluorescence units (RFU)) at different time points using the Glo-Max®-Multimode microplate reader (Promega Corporation, Alexandra, VIC, Australia) at an excitation/emission of 485/535 nm. To generate the positive control (20 μM tert-butyl hydroperoxide (TBHP)), cells were washed with 1X kit buffer, and stained with DCFDA (25 μM) for 45 min; this was removed and TBHP was added in phenol red free media, and the resulting solution was scanned as described above.

[15] = Lipophilicity by HPLC (log kw); type: physicochemical; conditions: for log kw: chromatographic lipophilicity index, extrapolated to 100% d.i.H2O; for log kw (y-intercept of log k versus [CH3CN] % plot, Figure S80): linear fit
Text: For lipophilicity measurements, HPLC was utilised instead of the traditional shake-flask method, as described previously. Recent studies have also reported the efficiency of HPLC in measuring the lipophilicity of compounds [79, 80]. Each complex was eluted under several isocratic ratios. A standard curve was generated to calculate the log value of the capacity factor (log k) according to Equation (1). Following Equation (2), the percentage of organic solvent (CH3CN) in the mobile phase from each isocratic run was plotted against log kw (Figure S80). Log kw is the chromatographic lipophilicity index or measure of lipophilicity of the complex, so a higher value corresponds to greater lipophilicity. Because the selected axial ligands in this study contain F, Cl, Br, and I, it was only appropriate to determine the influence of the halogens on the overall lipophilicity of the platinum(IV) complexes. […] Conversely, the least lipophilic complex was the phen derivative containing 4-FPA, 3, with a log kw of 0.25. Furthermore, for the phen derivatives, the order of increasing lipophilicity was 3 > 1 > 5 > 7, which corresponds to the order of increasing size of the halogens, F > Cl > Br > I. This pattern was also observed with the 5,6-Me2phen derivatives (4 > 2 > 6 > 8), thereby confirming that the halogens increased the order of lipophilicity accordingly based on their size.
For lipophilicity measurements, analytical HPLC was utilised. Elution profiles were acquired on an Agilent (Melbourne, VIC, Australia) Technologies 1260 Infinity instrument equipped with a Phenomenex Onyx^TM Monolithic C18-reverse phase column (100 × 4.6 mm, 5 µm pore size) (Sydney, NSW, Australia). The mobile phase consisted of solvents, A (0.06% TFA in d.i.H2O) and B (0.06% TFA in CH3CN/d.i.H2O (90:10)). Potassium iodide was used as an external dead volume marker to determine the dead time of the column. Retention times (TR) were measured at varying isocratic ratios ranging from 30 to 36% of solvent B at 1 mL·min^−1 mL. An injection volume of 10 µL was utilised. Capacity factors were determined according to Equation (1):(1) k=(TR−T0)/T0 where k is the capacity factor, TR is the retention time of the analyte, and T0 represents the dead time. A minimum of four different mobile compositions were used for each complex to calculate k. A linear plot was generated of log k against the concentration of CH3CN in the mobile phase to determine the value of log kw expressed by Equation (2):(2) logk=Sφ+logkw where S is the slope, φ is the concentration of the CH3CN in the mobile phase, and log kw represents the capacity factor of the complex in 100% d.i.H2O. Extrapolation of this linear plot to the y-intercept indicates the log kw value.

[16] = system: non-tumour derived MCF10A breast line; assay: MTT growth inhibition assay, MCF10A; type: cell-based, human; conditions: 72 h
[17] = Du145 prostate, ratio of GI50 values

Row | Structure (SMILES) | GI50 [1] | GI50 [2] | GI50 [3] | GI50 [4] | GI50 [5] | GI50 [6] | GI50 [7] | GI50 [8] | GI50 [9] | T50% (approximate time at which 50% reduction occurs) [10] | extent of reduction 1 h after the final 1H-NMR experiment (1D-195Pt-NMR) [10] | GI50 [11] | GI50 [12] | GI50 [13] | ROS production 24 h [14] | ROS production 48 h [14] | ROS production 72 h [14] | log kw [15] | log kw (y-intercept of log k versus [CH3CN] % plot, Figure S80) [15] | GI50 [16] | also measured
1 | Cc1c(C)c2c3c4c1=CC=C[N]4[Pt+2]([OH])([O]C(=O)Cc1ccc(F)cc1)[N]3C=CC=2.N[C@H]1CCCC[C@@H]1N [Complex 4, [Pt^IV(5,6-Me2phen)(SS-DACH)(4-FPA)(OH)]^2+] | 20 ± 4 nM | 6 ± 2 nM | 0.7 ± 0.4 nM | 23 ± 4 nM | 5 ± 2 nM | 14 ± 2 nM | 10 ± 3 nM | 110 ± 20 nM | 30 ± 8 nM | 20 to 25 min | partial reduction | 23 ± 5 nM | 37 ± 5 nM | 6 ± 2 nM | 579 ± 18 RFU | 681 ± 17 RFU | 738 ± 15 RFU | 0.80 | 0.8042 | 11 ± 3 nM | fold more potent than 56MESS [3, 17]: ~7 fold and 6.6 fold; fold more potent than cisplatin [13]: ~4700 fold
2 | N[C@H]1CCCC[C@@H]1N.O=C([O-])Cc1ccc(Br)cc1.[OH-].[Pt+4].c1cnc2c(c1)ccc1cccnc12 [Complex 5, [Pt^IV(phen)(SS-DACH)(4-BPA)(OH)]^2+] | 380 ± 50 nM | 190 ± 20 nM | 110 ± 11 nM | 457 ± 70 nM | 200 ± 20 nM | 450 ± 10 nM | 320 ± 20 nM | 960 ± 120 nM | 350 ± 20 nM | 15 to 20 min | partial reduction | 850 ± 240 nM | 1100 ± 230 nM | 250 ± 20 nM | 281 ± 16 RFU | 399 ± 12 RFU | 478 ± 9 RFU | 0.87 | 0.8765 | 320 ± 20 nM | –
3 | Cc1c(C)c2c3c4c1=CC=C[N]4[Pt+2]([OH])([O]C(=O)Cc1ccc(Br)cc1)[N]3C=CC=2.N[C@H]1CCCC[C@@H]1N [Complex 6, [Pt^IV(5,6-Me2phen)(SS-DACH)(4-BPA)(OH)]^2+] | 20 ± 3 nM | 7 ± 2 nM | 1 ± 0.6 nM | 22 ± 4 nM | 7 ± 2 nM | 19 ± 0.9 nM | 10 ± 2 nM | 100 ± 20 nM | 23 ± 5 nM | 30 min | partial reduction; also recorded: traces of platinum(IV) species were still observed | 21 ± 5 nM | 35 ± 5 nM | 6 ± 2 nM | 496 ± 14 RFU | 598 ± 14 RFU | 643 ± 14 RFU | 1.07 | 1.0701 | 10 ± 2 nM | fold more potent than 56MESS [3, 17]: 4.6 fold; fold more potent than cisplatin [3, 17]: 1200 fold; fold more potent than cisplatin ([13]; ADDP-resistant ovarian variant, ratio of GI50 values): ~4700 fold
